Laboratory results from ChEMBL document CHEMBL3603776, “2-Phenoxy-1,4-naphthoquinones: From a Multitarget Antitrypanosomal to a Potential Antitumor Profile” (J Med Chem, 2015).
Activity calls are given as the source filed them. The calls are words filed in the database; no cut-off is given here.

How the values were obtained:
[1] = Selectivity index, ratio of IC50 for rat L6 cells to IC50 for bloodstream forms of Trypanosoma brucei rhodesiense STIB 900; type: toxicity, cell-based; details: read-out: Ratio IC50
Trypanosoma brucei = assay: Inhibition of recombinant Trypanosoma brucei GAPDH assessed as oxidative phosphorylation of D-glyceraldehyde-3-phosphate to 1,3-bisphosphoglycerate at 5 uM by spectrophotometric method relative to 2-phenoxy-1,4-naphthoquinone
[2] = Selectivity index, ratio of IC50 for rat L6 cells to IC50 for amastigotes of Leishmania donovani MHOM/ET/67/L82; type: toxicity, cell-based; details: read-out: Ratio IC50
Bos taurus = organism: Bos taurus; assay: Inhibition of electron transport protein complex 2 in bovine hear mitochondria assessed as reduction of succinate-induced oxygen consumption at 5 uM
[3] = system: Trypanosoma brucei rhodesiense; assay: Antitrypanosomal activity against bloodstream forms of Trypanosoma brucei rhodesiense STIB 900 after 72 hrs by alamar blue assay; type: functional, organism-based; details: STIB 900, 72 h
Leishmania donovani = assay: Antitrypanosomal activity against amastigotes of Leishmania donovani MHOM/ET/67/L82 after 72 hrs by inverted microscope analysis; type: functional, organism-based; details: MHOM/ET/67/L82, 72 h
L6 = assay: Cytotoxicity against rat L6 cells after 72 hrs by alamar blue assay; type: cell-based; details: L6, 72 h

## COc1cccc2c1C(=O)C=C(Oc1ccc(F)cc1)C2=O
[1]
  selectivity ratio: 1.99
Trypanosoma brucei
  inhibition: 120%
[2]
  selectivity ratio: 0.36
Bos taurus
  inhibition: inactive
[3]
  IC50: 670 nM
Leishmania donovani
  IC50: 3720 nM
L6
  IC50: 1340 nM

## COc1cccc2c1C(=O)C=C(Oc1ccc(C)cc1)C2=O
[1]
  selectivity ratio: 2.71
Trypanosoma brucei
  inhibition: 40%
[2]
  selectivity ratio: 0.57
Bos taurus
  inhibition: inactive
[3]
  IC50: 550 nM
Leishmania donovani
  IC50: 2640 nM
L6
  IC50: 1490 nM

## COc1cccc2c1C(=O)C=C(Oc1ccccc1)C2=O
[1]
  selectivity ratio: 2.74
Trypanosoma brucei
  inhibition: 88%
[2]
  selectivity ratio: 0.33
Bos taurus
  inhibition: inactive
[3]
  IC50: 680 nM
Leishmania donovani
  IC50: 5600 nM
L6
  IC50: 1850 nM

## CC(=O)Nc1ccc(OC2=CC(=O)c3cc4ccccc4cc3C2=O)cc1
[1]
  selectivity ratio: 0.16
Trypanosoma brucei
  inhibition: 90%
[2]
  selectivity ratio: 0.06
Bos taurus
  inhibition: inactive
[3]
  IC50: 1210 nM
Leishmania donovani
  IC50: 3250 nM
L6
  IC50: 190 nM

## Nc1nc(N)nc(Nc2ccc([As]3SCC(CO)S3)cc2)n1 (stereo not drawn) [MELARSOPROL]
[1]
  selectivity ratio: 1830

## O=C1C=C(Oc2ccccc2)C(=O)c2cc3ccccc3cc21
Trypanosoma brucei
  inhibition: 68%

## CC(=O)Nc1ccc(OC2=CC(=O)c3cccc(O)c3C2=O)cc1
[1]
  selectivity ratio: 0.24
Trypanosoma brucei
  inhibition: 48%
[2]
  selectivity ratio: 0.07
Bos taurus
  inhibition: inactive
[3]
  IC50: 650 nM
Leishmania donovani
  IC50: 2330 nM
L6
  IC50: 150 nM

## CCCCCCCCCCCCCCCCOP(=O)([O-])OCC[N+](C)(C)C [MILTEFOSINE]
[2]
  selectivity ratio: 462

## COc1ccc(OC2=CC(=O)c3cccc(OC)c3C2=O)cc1
[1]
  selectivity ratio: 0.18
Trypanosoma brucei
  inhibition: 48%
[2]
  selectivity ratio: 0.05
Bos taurus
  inhibition: inactive
[3]
  IC50: 6030 nM
Leishmania donovani
  IC50: 22500 nM
L6
  IC50: 1090 nM

## COc1cccc2c1C(=O)C(Oc1ccccc1)=CC2=O
[1]
  selectivity ratio: 0.36
Trypanosoma brucei
  inhibition: 72%
[2]
  selectivity ratio: 0.05
Bos taurus
  inhibition: inactive
[3]
  IC50: 1760 nM
Leishmania donovani
  IC50: 13100 nM
L6
  IC50: 640 nM

## O=C1C=C(Oc2ccccc2)C(=O)c2c(O)cccc21
[1]
  selectivity ratio: 1.76
Trypanosoma brucei
  inhibition: 84%
[2]
  selectivity ratio: 0.51
Bos taurus
  inhibition: inactive
[3]
  IC50: 850 nM
Leishmania donovani
  IC50: 2960 nM
L6
  IC50: 1500 nM

## CC(=O)Nc1ccc(OC2=CC(=O)c3c(O)cccc3C2=O)cc1
[1]
  selectivity ratio: 0.27
Trypanosoma brucei
  inhibition: 0%
[2]
  selectivity ratio: 0.15
Bos taurus
  inhibition: inactive
[3]
  IC50: 2170 nM
Leishmania donovani
  IC50: 3800 nM
L6
  IC50: 590 nM

## O=C1C=C(Oc2ccc(F)cc2)C(=O)c2c(O)cccc21
[1]
  selectivity ratio: 0.54
Trypanosoma brucei
  inhibition: 128%
[2]
  selectivity ratio: 0.55
Bos taurus
  inhibition: inactive
[3]
  IC50: 1370 nM
Leishmania donovani
  IC50: 1330 nM
L6
  IC50: 740 nM

## O=C1C(Oc2ccc(F)cc2)=CC(=O)c2c(O)cccc21
[1]
  selectivity ratio: 0.52
Trypanosoma brucei
  inhibition: 136%
[2]
  selectivity ratio: 0.47
Bos taurus
  inhibition: inactive
[3]
  IC50: 2690 nM
Leishmania donovani
  IC50: 2990 nM
L6
  IC50: 1410 nM

## COc1ccc(OC2=CC(=O)c3cccc(O)c3C2=O)cc1
[1]
  selectivity ratio: 0.61
Trypanosoma brucei
  inhibition: 76%
[2]
  selectivity ratio: 0.33
Bos taurus
  inhibition: inactive
[3]
  IC50: 1710 nM
Leishmania donovani
  IC50: 3130 nM
L6
  IC50: 1040 nM

## COc1cccc2c1C(=O)C(Oc1ccc(C)cc1)=CC2=O
[1]
  selectivity ratio: 0.34
Trypanosoma brucei
  inhibition: 20%
[2]
  selectivity ratio: 0.07
Bos taurus
  inhibition: inactive
[3]
  IC50: 2180 nM
Leishmania donovani
  IC50: 10900 nM
L6
  IC50: 750 nM

## COc1ccc(OC2=CC(=O)c3c(O)cccc3C2=O)cc1
[1]
  selectivity ratio: 0.73
Trypanosoma brucei
  inhibition: 24%
[2]
  selectivity ratio: 0.5
Bos taurus
  inhibition: inactive
[3]
  IC50: 1440 nM
Leishmania donovani
  IC50: 2110 nM
L6
  IC50: 1040 nM

## O=C(Cn1ccnc1[N+](=O)[O-])NCc1ccccc1 [BENZNIDAZOLE]
L6
  IC50: > 384000 nM

## COc1cc([C@@H]2c3cc4c(cc3[C@H](O)[C@H]3COC(=O)[C@H]23)OCO4)cc(OC)c1OC [PODOFILOX]
L6
  IC50: 2 nM
